In patent US20050054625A1, “Method for treating diseases using HSP90-inhibiting agents in combination with nuclear export inhibitors” (Kosan Biosciences, Inc., priority 2003, published 2005):

Test system: DLD-1 cells (human colorectal cancer cells)
Assay: Cell viability (MTS) drug combination assay, combination index
Type: cell-based
Conditions: combination with 17-AAG, CI<1 synergism
Experimental: Human colon adenocarcinoma cell line, DLD-1, and human breast adenocarcinoma cell line, SKBr-3, were obtained from American Type Culture Collection (manassas, VA). DLD-1 cells were maintained in RPMI 1640 medium supplemented with 10% fetal bovine serum, and SKBr-3 cells were cultured in McCoy's 5a medium supplemented with 10% fetal bovine serum. 17-DMAG and 17-AAG were obtained using published procedures. Other cytotoxic agents were purchased commercially from suppliers such as Sigrna Chemical Co. (St. Louis, Mo.) and Sequoia Research Products (Oxford, UK).
Cells were seeded in duplicate in 96-well microtiter plates at a density of 5,000 cells per well and allowed to attach overnight. […] Cell viability was determined using the MTS assay (Promega). […] Cell viability was determined by the MTS assay.
Synergism, additivity or antagonism was determined by median effect analysis using the combination index (CI) calculated using Calcusyn (Biosoft, Cambridge, UK). The combination index is defined as follows: CI=[D]1/[Dx]1+[D]2/[Dx]2 The quantities [D]1 and [D]2 represent the concentrations of the first and second drug, respectively, that in combination provide a response of x % in the assay. The quantities [Dx]1 and [Dx]2 represent the concentrations of the first and second drug, respectively, that when used alone provide a response of x % in the assay. […]

For callystatin, the “CI value, 17-AAG Pre-Administration” value (17-AAG given 24 hours before the nuclear export inhibitor (48 hours)) was 0.95 ± 0.04 and the “CI value, 17-AAG Post-Administration” value (nuclear export inhibitor alone 24 hours, then 17-AAG for 48 hours) was 0.81 ± 0.06.
